Values of other authors in US11136326B2, “Pyrrolopyrimidine derivatives as TAM inhibitors” (Incyte Corporation, priority 2015, dated 2021).

System: NK cells

SMILES: CCOc1cn(-c2ccc(F)cc2C)nc1C(=O)Nc1ccc(Oc2ccnc3cc(OC)c(OC)cc23)c(F)c1 [LDC1267]
- NK cell activation: activates NK cells
